In PubChem BioAssay (NCI):
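96-well plates; 48 h exposure; 5 concentrations. Endpoints by linear interpolation between flanking doses. Not reached: highest tested concentration assigned. TGI denotes the concentration required for complete inhibition of growth.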

Experiments:
Assay in all cases: NCI-60 cell line screen, 48 h
HOP-62 NSCLC = tested on: HOP-62 NSCLC
M19-MEL melanoma = tested on: M19-MEL melanoma
HCT-116 colon = tested on: HCT-116 colon
HOP-92 NSCLC = tested on: HOP-92 NSCLC
NCI-H522 lung = tested on: NCI-H522 lung
RPMI-8226 leukemia = tested on: RPMI-8226 leukemia
SF-295 CNS = tested on: SF-295 CNS
HOP-18 NSCLC = tested on: HOP-18 NSCLC
CAKI-1 renal = tested on: CAKI-1 renal
EKVX NSCLC = tested on: EKVX NSCLC
KM12 colon = tested on: KM12 colon
K-562 leukemia = tested on: K-562 leukemia
COLO 205 colon = tested on: COLO 205 colon
RXF-631 renal = tested on: RXF-631 renal
UACC-257 melanoma = tested on: UACC-257 melanoma
NCI-H226 lung = tested on: NCI-H226 lung
HT29 colon = tested on: HT29 colon
UO-31 renal = tested on: UO-31 renal
SK-MEL-2 melanoma = tested on: SK-MEL-2 melanoma
SNB-78 CNS = tested on: SNB-78 CNS
DMS 273 small cell lung = tested on: DMS 273 small cell lung
NCI-H460 lung = tested on: NCI-H460 lung
LXFL 529 NSCLC = tested on: LXFL 529 NSCLC
786-0 renal = tested on: 786-0 renal
LOX IMVI melanoma = tested on: LOX IMVI melanoma
SW-620 colon = tested on: SW-620 colon
A498 renal = tested on: A498 renal
ACHN renal = tested on: ACHN renal
OVCAR-8 ovarian = tested on: OVCAR-8 ovarian
IGROV1 ovarian = tested on: IGROV1 ovarian
RXF 393 renal = tested on: RXF 393 renal
U251 CNS = tested on: U251 CNS
SNB-75 CNS = tested on: SNB-75 CNS
CCRF-CEM leukemia = tested on: CCRF-CEM leukemia
HL-60(TB) leukemia = tested on: HL-60(TB) leukemia
DLD-1 colon = tested on: DLD-1 colon
HCC-2998 colon = tested on: HCC-2998 colon
OVCAR-4 ovarian = tested on: OVCAR-4 ovarian
MALME-3M melanoma = tested on: MALME-3M melanoma
SK-MEL-28 melanoma = tested on: SK-MEL-28 melanoma
M14 melanoma = tested on: M14 melanoma
A549 NSCLC = tested on: A549 NSCLC
DMS 114 small cell lung = tested on: DMS 114 small cell lung
UACC-62 melanoma = tested on: UACC-62 melanoma
SF-268 CNS = tested on: SF-268 CNS
MOLT-4 leukemia = tested on: MOLT-4 leukemia
NCI-H23 lung = tested on: NCI-H23 lung
HCT-15 colon = tested on: HCT-15 colon
SF-539 CNS = tested on: SF-539 CNS
TK-10 renal = tested on: TK-10 renal
KM20L2 colon = tested on: KM20L2 colon
SK-MEL-5 melanoma = tested on: SK-MEL-5 melanoma
SN12C renal = tested on: SN12C renal
SR leukemia = tested on: SR leukemia
OVCAR-5 ovarian = tested on: OVCAR-5 ovarian
SK-OV-3 ovarian = tested on: SK-OV-3 ovarian
OVCAR-3 ovarian = tested on: OVCAR-3 ovarian

Measured: TGI

NC(=O)N/N=C1/CCCC/C1=C\c1ccccc1
> 100 µM: all assays above
